From patent US8592405B2, “Synergistic antimicrobial composition” (Dow Global Technologies LLC, priority 2009, dated 2013)
Values joined by “and” are separate entries in the source; they are usually repeats but may differ in a detail not shown here. Identical values can stand only once.

Tests used:
Format in all cases: cell-based
[1] = system: Aspergillus niger (An); assay: Fungal efficacy testing, modified ASTM 5590 (12-well, dry paint film); conditions: three weeks; for Total conc, ppm: total biocide in paint taken as minimum inhibitory concentration, 30 C; for % inhibition: at the Total conc
Protocol: Samples of white acrylic latex paint free of biocides were prepared in 50 ml aliquots. Each biocide was post added to give the necessary active ingredient concentration in the paint. The total biocides concentrations tested were 750, 1500, 2500 and 5000 ppm. After biocides addition, each sample was hand mixed for a minimum of 30 sec, followed by a 3 min run on the paint shaker (RED DEVIL). Each of the paint samples as well as a control sample (containing no biocide) were used to prepare films on black plastic-vinyl chloride/acetate copolymer panels (LENETA, Mahwah, N.J.) using a 3 mil bird bar applicator. The panels were thoroughly dried for 5 days avoiding direct exposure to sunlight. Square discs (15 mm^2) were cut out from each panel and were used as the substrate for fungal and algal efficacy tests. This sample size allowed for an agar border when the sample disc was placed into the well of the test plate.
The appropriate media (BOLD'S 3N for Chlorophytes, BG-11 for Cyanobacteria, and PDA for fungi) were used to support microbial growth. The test plates were maintained at room temp (25° C.-26° C.), in a cycled light-dark environment, for 3 weeks for algae. Plates for fungal challenge tests were maintained at 30C for three weeks. At the end of incubation period the samples were scored for percent area covered by visible microbial growth.
ASTM 5590 is a standard accelerated test method for determining resistance of various coatings (including paints) to fungal defacement. To accommodate for high-throughput screening, this method was scaled down from petri plates to 12-well plates. To set up the test, an agar plug was placed at the bottom of each well of the sterile 12-well plate. A single coupon was placed with a pair of sterile forceps at the center of the agar plug (on top) with the painted surface facing upwards. Each well was inoculated with 150 μl of organism (1×10^6 cfu/ml) making sure that the whole surface (paint film as well as the agar surrounding it) was evenly covered. The plates were incubated at 30° C. in presence of moisture, for a period of three weeks. The total percent area covered was evaluated and recorded at the end of each week after the 2nd week and recorded in increments of 5%. […]

[2] = system: Aa + Ap (Alternaria alternata + Aureobasidium pullulans); assay: Fungal efficacy testing, modified ASTM 5590 (6-well, mixed inoculum, Example 4); conditions: four weeks; for Total conc, ppm: Aa + Ap mixed inoculum, NE = no end point at the concentration tested; for % inhibition: Aa + Ap, at the Total conc
Protocol: [The source words this procedure for another target and reports this target under the same test.] The SI is calculated based on F. C. Kull et.
(§1) A single or blend of biocides was post added into white acrylic latex paint free of biocides to give a maximum total active ingredient/s concentration tested. This paint was then diluted with a biocide free acrylic latex paint at concentrations range of 75 to 12.5% w/w to give desired concentrations for the testing. Depending on the type of biocide blends tested, the total biocides concentrations varies from 200 to 5000 ppm. After biocides addition or dilution each sample was hand mixed for at least a minute until uniformity is achieved. Each of the paint samples as well as a control sample (containing no biocide) were used to prepare films on black plastic-vinyl chloride/acetate copolymer panels (LENETA, Mahwah, N.J.) using a 3 mil bird bar applicator. The panels were thoroughly dried for at least 2 days avoiding direct exposure to sunlight. Square discs (0.5 inch^2, 13 mm^2) were cut out from each panel and were used as the substrate for fungal and algal efficacy tests. This sample size allowed for an agar border when the sample disc was placed into the well of the test plate. Each sample was tested in duplicate
(§2) The appropriate media (BOLD'S 3N for Chlorophytes, BG-11 for Cyanobacteria, and PDA for fungi) were used to support microbial growth. The test plates were maintained at room temp (25° C.-26° C.), in a cycled light-dark environment, for four weeks for algae. Plates for fungal challenge tests were maintained at 30 C for four weeks. At the end of the incubation period the samples were scored for percent area covered by visible microbial growth.
ASTM 5590 is a standard accelerated test method for determining resistance of various coatings (including paints) to fungal defacement. To accommodate for high-throughput screening, this method was scaled down from petri plates to 6-well plates. To set up the test, an agar plug was placed at the bottom of each well of the sterile 6-well plate. A single coupon was placed with a pair of sterile forceps at the center of the agar plug (on top) with the painted surface facing upwards. Fungal inoculums were prepared by mixing equal concentrations (1×10^6 cfu/ml) and equal volumes (depending on number of samples to be tested) of like growing organisms. Cladosporium herbarum was mixed with Aureobasidium pullulans. Aspergillus niger was mixed with Penicillium funiculosum. Alternaria alternata was mixed with Trichoderma viride. Each well was inoculated with 400 μl of organism mixture (1×10^6 cfu/ml) making sure that the whole surface (paint film as well as the agar surrounding it) was evenly covered. The plates were incubated at 30° C. in presence of moisture, for a period of four weeks. The total percent area covered was evaluated and recorded at the end of each week after the 2nd week and recorded in increments of 5%.

[3] = system: Cs + Ck + Nc (Chlorella sp., Chlorella kessleri, Nostoc commune); assay: Algal efficacy testing, modified ASTM 5589 (6-well, mixed inoculum, Example 4); conditions: four weeks; for Total conc, ppm: Cs + Ck + Nc mixed inoculum, NE = no end point at the concentration tested; for % inhibition: Cs + Ck + Nc, at the Total conc
Protocol: as §1, §2
(§3) ASTM 5589 is a standard accelerated test method for determining resistance of various coatings (including paints) to algal defacement. To accommodate for high-throughput screening, this method was scaled down from petri plates to 6-well plates. A single coupon was placed with a pair of sterile forceps at the center of the agar plug (on top) with the painted surface facing upwards. Algal inoculums were prepared by mixing equal concentrations (1×10^6 cfu/ml) and equal volumes (depending on number of samples to be inoculated) of like growing organisms. In this study, Gloeocapsa sp. and Oscillatoria sp. were a mix of cyanobacteria grown on BG-11 media. Chlorella sp., Chlorella kessleri, and Nostoc commune are unicellular chlorphytes that were mixed and grown on Bold media. Trentepohlia aurea, Trentepohlia odorata, and Calotrix parientina are filamentous algae that were mixed and grown on Bold media. Each well was inoculated with 400 μl of organism mixture (1×10^6 cfu/ml) making sure that the whole surface (paint film as well as the agar surrounding it) was evenly covered. The plates were incubated at room temp (25° C.-26° C.) with cyclic exposure to light (OTT-Lite model #OTL4012P, 40 Watt, 26 KLumen) and dark phases, for a period of four weeks. The total area covered was evaluated at the end of each week according to percent area covered in 5% increments. While rating the plates, notations were made for zones of inhibition.

[4] = system: Cp + To + Ta (Calotrix parientina, Trentepohlia odorata, Trentepohlia aurea); assay: as above; conditions: four weeks; for Total conc, ppm: Cp + To + Ta mixed inoculum, NE = no end point at the concentration tested; for % inhibition: Cp + To + Ta, at the Total conc
Protocol: as §1, §2, §3

[5] = system: Gs + Os (Gloeocapsa sp. + Oscillatoria sp.); assay: as above; conditions: four weeks; for Total conc, ppm: Gs + Os mixed inoculum, NE = no end point at the concentration tested; for % inhibition: Gs + Os, at the Total conc
Protocol: as §1, §2, §3

SMILES	Total conc, ppm [1]	Total conc, ppm [2]	% inhibition [2]	Total conc, ppm [3]	% inhibition [3]	Total conc, ppm [4]	% inhibition [4]	Total conc, ppm [5]	% inhibition [5]	% inhibition [1]
CN(C)C(=O)Nc1cccc(C(F)(F)F)c1 [Fluometuron, 1,1-dimethyl-3-(α,α,α-trifluoro-m-tolyl)urea]	2500 ppm and 5000 ppm	5000 ppm	0%	1250 ppm	100%	1250 ppm	100%	312.5 ppm	100%	–
CCCCCCCCn1sc(Cl)c(Cl)c1=O [DCOIT, 4,5-dichloro-2-n-octyl-4-isothiazolin-3-one]	5000 ppm	862.5 ppm	100%	575 ppm	100%	575 ppm	100%	287.5 ppm	100%	75%
Cc1ccc(S(=O)(=O)C(I)I)cc1 [DIMTS, diiodomethyl-p-tolylsulfone]	750 ppm	1250 ppm	100%	1250 ppm	100%	1875 ppm	95%	1875 ppm	100%	75%
